For assay [1], the system named is LNCaP cells. The assay can be described thus: LNCaP cell viability assay (CellTiter-Glo). The class given is cell-based. Conditions: Homo sapiens, 72 h, LNCaP prostate cancer cell viability inhibition, 3 days. The method in brief:
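LNCaP cells, 5000/well, exposed to compounds in 12-point 3-fold serial dilution (top 10 μM) for 3 days. Viability by CellTiter-Glo luminescence, normalized to untreated cells; IC50 by least-squares nonlinear regression.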

The target of assay [2] is P300 (Homo sapiens, UniProt Q09472). The assay can be described thus: Immunoblotting of P300 protein levels in LNCaP or 22RV1 cells. The format is cell-based. Further details: LNCaP or 22RV1 cells that express CBP/P300 proteins were treated with GNE-781 or the bivalent compounds; endogenous in cells; host or cells: LNCaP (clone FGC) or 22RV1 cells. As to conditions: read-out: Degradation (10 nM). Put shortly:
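LNCaP or 22RV1 cells treated with compounds for indicated hours, DMSO as negative control. RIPA lysates resolved by SDS-PAGE and immunoblotted for P300 or CBP, tubulin or vinculin as loading control; chemiluminescent bands quantitated.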

Where [3] appears, read: percentage of inhibition of p300 at 10 nM (Table 3).
Where [4] appears, read: percentage of inhibition of p300 at 10 nM (Table 2).

Read-outs that look alike come from different tables or passages of the source.

Chain of P300 (Q09472 whole entry): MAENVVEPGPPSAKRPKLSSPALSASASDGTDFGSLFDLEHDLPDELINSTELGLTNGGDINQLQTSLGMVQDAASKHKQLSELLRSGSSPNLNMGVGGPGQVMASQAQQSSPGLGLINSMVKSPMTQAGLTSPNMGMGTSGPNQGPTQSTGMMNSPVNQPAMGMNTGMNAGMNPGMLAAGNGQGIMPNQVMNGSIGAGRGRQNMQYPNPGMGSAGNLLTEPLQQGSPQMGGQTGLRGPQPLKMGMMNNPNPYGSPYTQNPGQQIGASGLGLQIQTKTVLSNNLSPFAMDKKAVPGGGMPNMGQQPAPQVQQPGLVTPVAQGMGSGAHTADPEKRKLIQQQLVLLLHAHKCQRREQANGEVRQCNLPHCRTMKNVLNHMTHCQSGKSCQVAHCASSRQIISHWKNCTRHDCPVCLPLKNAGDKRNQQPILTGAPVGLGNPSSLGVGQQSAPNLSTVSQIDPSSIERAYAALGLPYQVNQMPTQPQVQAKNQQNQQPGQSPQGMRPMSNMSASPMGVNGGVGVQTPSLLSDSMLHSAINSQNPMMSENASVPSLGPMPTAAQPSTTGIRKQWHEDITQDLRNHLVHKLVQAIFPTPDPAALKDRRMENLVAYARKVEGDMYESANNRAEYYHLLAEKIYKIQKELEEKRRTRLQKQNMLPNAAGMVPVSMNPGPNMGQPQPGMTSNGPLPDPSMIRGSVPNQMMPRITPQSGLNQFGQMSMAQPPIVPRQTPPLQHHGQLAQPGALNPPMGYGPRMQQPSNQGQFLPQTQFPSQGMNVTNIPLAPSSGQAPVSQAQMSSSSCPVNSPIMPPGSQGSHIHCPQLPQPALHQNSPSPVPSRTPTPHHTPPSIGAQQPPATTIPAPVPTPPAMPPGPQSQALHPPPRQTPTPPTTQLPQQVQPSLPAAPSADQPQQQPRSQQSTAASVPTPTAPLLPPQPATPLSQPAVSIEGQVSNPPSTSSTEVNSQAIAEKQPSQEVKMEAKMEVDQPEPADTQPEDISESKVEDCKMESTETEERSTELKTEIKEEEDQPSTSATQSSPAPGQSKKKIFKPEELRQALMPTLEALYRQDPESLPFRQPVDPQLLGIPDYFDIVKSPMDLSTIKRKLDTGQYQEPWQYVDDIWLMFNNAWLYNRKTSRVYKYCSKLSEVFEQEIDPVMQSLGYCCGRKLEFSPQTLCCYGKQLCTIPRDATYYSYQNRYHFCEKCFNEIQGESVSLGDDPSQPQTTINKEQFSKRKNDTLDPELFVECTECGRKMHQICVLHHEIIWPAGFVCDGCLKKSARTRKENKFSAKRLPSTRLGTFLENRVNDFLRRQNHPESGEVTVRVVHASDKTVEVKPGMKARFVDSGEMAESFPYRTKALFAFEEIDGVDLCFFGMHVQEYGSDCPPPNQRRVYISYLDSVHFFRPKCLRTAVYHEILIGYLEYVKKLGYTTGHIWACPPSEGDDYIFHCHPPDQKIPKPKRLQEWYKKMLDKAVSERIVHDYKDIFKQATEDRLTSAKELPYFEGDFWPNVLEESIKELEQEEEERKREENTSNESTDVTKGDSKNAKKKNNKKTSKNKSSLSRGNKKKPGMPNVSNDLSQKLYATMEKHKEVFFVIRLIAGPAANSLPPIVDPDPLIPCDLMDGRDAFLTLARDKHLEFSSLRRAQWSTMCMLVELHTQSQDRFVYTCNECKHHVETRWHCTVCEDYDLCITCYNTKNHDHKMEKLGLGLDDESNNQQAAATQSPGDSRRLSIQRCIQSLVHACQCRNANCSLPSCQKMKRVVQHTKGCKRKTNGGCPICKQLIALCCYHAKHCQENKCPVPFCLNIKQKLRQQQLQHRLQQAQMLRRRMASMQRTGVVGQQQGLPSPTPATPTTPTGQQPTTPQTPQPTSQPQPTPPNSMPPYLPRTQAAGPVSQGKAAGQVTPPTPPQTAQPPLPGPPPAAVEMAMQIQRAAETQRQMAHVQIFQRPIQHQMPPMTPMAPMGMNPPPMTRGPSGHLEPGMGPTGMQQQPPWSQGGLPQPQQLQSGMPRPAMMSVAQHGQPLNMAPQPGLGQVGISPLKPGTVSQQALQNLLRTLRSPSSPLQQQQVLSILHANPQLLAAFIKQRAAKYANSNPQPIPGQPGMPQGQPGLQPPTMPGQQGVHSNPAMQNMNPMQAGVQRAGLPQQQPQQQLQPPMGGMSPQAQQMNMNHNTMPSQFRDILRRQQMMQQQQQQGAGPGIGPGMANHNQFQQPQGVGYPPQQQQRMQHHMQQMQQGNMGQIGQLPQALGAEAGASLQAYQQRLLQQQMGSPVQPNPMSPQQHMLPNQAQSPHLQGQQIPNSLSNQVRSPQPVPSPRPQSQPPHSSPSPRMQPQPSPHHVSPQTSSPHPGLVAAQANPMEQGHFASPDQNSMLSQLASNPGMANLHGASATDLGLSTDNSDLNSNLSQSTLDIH

Turning to `CC(=O)N1CCc2c(c(N3CCCc4cc(-c5cnn(C)c5)c(C(F)F)cc43)nn2C2CCN(C(=O)CN3CCC(CCc4cccc5c4C(=O)N(C4CCC(=O)NC4=O)C5=O)CC3)CC2)C1` (centres unmarked) [P-131, 4-(2-(1-(2-(4-(5-acetyl-3-(7-(difluoromethyl)-6-(1-methyl-1H-pyrazol-4-yl)-3,4-dihydroquinolin-1(2H)-yl)-4,5,6,7-tetrahydro-1H-pyrazolo[4,3-c]pyridin-1-yl)piperidin-1-yl)-2-oxoethyl)piperidin-4-yl)ethyl)-2-(2,6-dioxopiperidin-3-yl)isoindoline-1,3-dione], the IC50 (as a rule, the point on the concentration scale where inhibition reaches its midpoint) in assay [1] (CellTiter-Glo (Table 3)) was 14 nM. The inhibition at 0.01 µM in assay [2] (setting [3]) is > 80%.

`CNC(=O)N1CCc2c(c(N3CCCc4cc(-c5cnn(C)c5)c(C(F)F)cc43)nn2C2CCN(C(=O)CCCCC#Cc3cccc4c3CN(C3CCC(=O)NC3=O)C4=O)CC2)C1` (centres unmarked) [P-093, 3-(7-(difluoromethyl)-6-(1-methyl-1H-pyrazol-4-yl)-3,4-dihydroquinolin-1(2H)-yl)-1-(1-(7-(2-(2,6-dioxopiperidin-3-yl)-1-oxoisoindolin-4-yl)hept-6-ynoyl)piperidin-4-yl)-N-methyl-1,4,6,7-tetrahydro-5H-pyrazolo[4,3-c]pyridine-5-carboxamide]: the IC50 in assay [1] (CellTiter-Glo (Table 3)) came out at 25.2 nM. Also, in assay [2] (setting [3]), the inhibition at 0.01 µM was > 80%.

With `CNC(=O)N1CCc2c(c(N3CCCc4cc(-c5cnn(C)c5)c(C(F)F)cc43)nn2C2CCN(CCCCCCNc3cccc4c3C(=O)N(C3CCC(=O)NC3=O)C4=O)CC2)C1` (centres unmarked) [P-090, 3-(7-(difluoromethyl)-6-(1-methyl-1H-pyrazol-4-yl)-3,4-dihydroquinolin-1(2H)-yl)-1-(1-(6-((2-(2,6-dioxopiperidin-3-yl)-1,3-dioxoisoindolin-4-yl)amino)hexyl)piperidin-4-yl)-N-methyl-1,4,6,7-tetrahydro-5H-pyrazolo[4,3-c]pyridine-5-carboxamide], inhibition in assay [1] (CellTiter-Glo (Table 3)) was half-maximal at 1 nM (IC50). Further, the inhibition at 0.01 µM in assay [2] (setting [3]) was > 80%.

As to `CNC(=O)N1CCc2c(c(N3CCCc4cc(-c5cnn(C)c5)c(C(F)F)cc43)nn2C2CCN(C(=O)CCCCCCCC(=O)N[C@H](C(=O)N3C[C@H](O)C[C@H]3C(=O)NCc3ccc(-c4scnc4C)cc3)C(C)(C)C)CC2)C1` [P-061, 3-(7-(Difluoromethyl)-6-(1-methyl-1H-pyrazol-4-yl)-3,4-dihydroquinolin-1(2H)-yl)-1-(1-(9-(((S)-1-((2S,4R)-4-hydroxy-2-((4-(4-methylthiazol-5-yl)benzyl)carbamoyl)pyrrolidin-1-yl)-3,3-dimethyl-1-oxobutan-2-yl)amino)-9-oxononanoyl)piperidin-4-yl)-N-methyl-1,4,6,7-tetrahydro-5H-pyrazolo[4,3-c]pyridine-5-carboxamide], the IC50 in assay [1] (CellTiter-Glo (Table 3)) was determined as 81.3 nM. In addition, in assay [2] (setting [3]), the inhibition at 0.01 µM was < 20%.

Turning to `CC(=O)N1CCc2c(c(N3CCCc4cc(-c5cnn(C)c5)c(C(F)F)cc43)nn2C2CCN(C(=O)CCCCCCCCn3c(=O)n(C4CCC(=O)NC4=O)c4ccccc43)CC2)C1` (centres unmarked) [P-163, 3-(3-(9-(4-(5-acetyl-3-(7-(difluoromethyl)-6-(1-methyl-1H-pyrazol-4-yl)-3,4-dihydroquinolin-1(2H)-yl)-4,5,6,7-tetrahydro-1H-pyrazolo[4,3-c]pyridin-1-yl)piperidin-1-yl)-9-oxononyl)-2-oxo-2,3-dihydro-1H-benzo[d]imidazol-1-yl)piperidine-2,6-dione], in assay [1] (CellTiter-Glo (Table 3)), the IC50 was 0.9 nM. The inhibition at 0.01 µM in assay [2] is > 80%.

`CNC(=O)N1CCc2c(c(N3CCCc4cc(-c5cnn(C)c5)c(C(F)F)cc43)nn2C2CCN(C(=O)CCCCCCNc3cccc4c3C(=O)N(C3CCC(=O)NC3=O)C4=O)CC2)C1` (centres unmarked) [P-035, 3-(7-(difluoromethyl)-6-(1-methyl-1H-pyrazol-4-yl)-3,4-dihydroquinolin-1(2H)-yl)-1-(1-(7-((2-(2,6-dioxopiperidin-3-yl)-1,3-dioxoisoindolin-4-yl)amino)heptanoyl)piperidin-4-yl)-N-methyl-1,4,6,7-tetrahydro-5H-pyrazolo[4,3-c]pyridine-5-carboxamide]: it took 0.7 nM to reach half-maximal inhibition in assay [1] (CellTiter-Glo (Table 2)) (IC50). Besides, the inhibition at 0.01 µM in assay [2] (setting [4]) was > 80%.

The compound `CNC(=O)N1CCc2c(c(N3CCCc4cc(-c5cnn(CC(=O)NCCCCCC(=O)N[C@H](C(=O)N6C[C@H](O)C[C@H]6C(=O)NCc6ccc(-c7scnc7C)cc6)C(C)(C)C)c5)c(C(F)F)cc43)nn2C2CCOCC2)C1` [P-047, 3-(7-(Difluoromethyl)-6-(1-(2-((6-(((S)-1-((2S,4R)-4-hydroxy-2-((4-(4-methylthiazol-5-yl)benzyl)carbamoyl)pyrrolidin-1-yl)-3,3-dimethyl-1-oxobutan-2-yl)amino)-6-oxohexyl)amino)-2-oxoethyl)-1H-pyrazol-4-yl)-3,4-dihydroquinolin-1(2H)-yl)-N-methyl-1-(tetrahydro-2H-pyran-4-yl)-1,4,6,7-tetrahydro-5H-pyrazolo[4,3-c]pyridine-5-carboxamide] registered an IC50 in assay [1] (CellTiter-Glo (Table 2)) of 2560 nM. Further, the inhibition at 0.01 µM in assay [2] (setting [4]) is < 20%.

The compound `CC(=O)N1CCc2c(c(N3CCCc4cc(-c5cnn(CC(=O)NCCCCCCCNc6ccc7c(c6)C(=O)N(C6CCC(=O)NC6=O)C7=O)c5)c(C(F)F)cc43)nn2C2CCOCC2)C1` (centres unmarked) [P-133, 2-(4-(1-(5-acetyl-1-(tetrahydro-2H-pyran-4-yl)-4,5,6,7-tetrahydro-1H-pyrazolo[4,3-c]pyridin-3-yl)-7-(difluoromethyl)-1,2,3,4-tetrahydroquinolin-6-yl)-1H-pyrazol-1-yl)-N-(7-((2-(2,6-dioxopiperidin-3-yl)-1,3-dioxoisoindolin-5-yl)amino)heptyl)acetamide] registered an IC50 in assay [1] (CellTiter-Glo (Table 3)) of 4 nM. For the same compound, the inhibition at 0.01 µM in assay [2] (setting [3]) is > 80%.

`CC(=O)N1CCc2c(c(N3CCCc4cc(-c5cnn(C)c5)c(C(F)F)cc43)nn2C2CCN(C(=O)CCCCCCc3cccc4c3C(=O)N(C3CCC(=O)NC3=O)C4=O)CC2)C1` (centres unmarked) [P-118, 4-(7-(4-(5-Acetyl-3-(7-(difluoromethyl)-6-(1-methyl-1H-pyrazol-4-yl)-3,4-dihydroquinolin-1(2H)-yl)-4,5,6,7-tetrahydro-1H-pyrazolo[4,3-c]pyridin-1-yl)piperidin-1-yl)-7-oxoheptyl)-2-(2,6-dioxopiperidin-3-yl)isoindoline-1,3-dione] registered an IC50 in assay [1] (CellTiter-Glo (Table 3)) of 17.8 nM. In assay [2] (setting [3]), the inhibition at 0.01 µM lay within 20 to 50%.

In assay [1] (CellTiter-Glo (Table 3)), `CC(=O)N1CCc2c(c(N3CCCc4cc(-c5cnn(C)c5)c(C(F)F)cc43)nn2C2CCN(C(=O)CCCCNc3ccc4c(c3)n(C)c(=O)n4C3CCC(=O)NC3=O)CC2)C1` (centres unmarked) [P-126, 3-(5-((5-(4-(5-Acetyl-3-(7-(difluoromethyl)-6-(1-methyl-1H-pyrazol-4-yl)-3,4-dihydroquinolin-1(2H)-yl)-4,5,6,7-tetrahydro-1H-pyrazolo[4,3-c]pyridin-1-yl)piperidin-1-yl)-5-oxopentyl)amino)-3-methyl-2-oxo-2,3-dihydro-1H-benzo[d]imidazol-1-yl)piperidine-2,6-dione] yielded an IC50 of 94 nM. Besides, the inhibition at 0.01 µM in assay [2] (setting [3]) was > 80%.

On to `CNC(=O)N1CCc2c(c(N3CCCc4cc(-c5cnn(C)c5)c(C(F)F)cc43)nn2C2CCN(C(=O)CCCCCCCNc3cccc4c3C(=O)N(C3CCC(=O)NC3=O)C4=O)CC2)C1` (centres unmarked) [P-036, 3-(7-(difluoromethyl)-6-(1-methyl-1H-pyrazol-4-yl)-3,4-dihydroquinolin-1(2H)-yl)-1-(1-(8-((2-(2,6-dioxopiperidin-3-yl)-1,3-dioxoisoindolin-4-yl)amino)octanoyl)piperidin-4-yl)-N-methyl-1,4,6,7-tetrahydro-5H-pyrazolo[4,3-c]pyridine-5-carboxamide], for which the midpoint of inhibition in assay [1] (CellTiter-Glo (Table 2)), the IC50, lay at 0.8 nM. Further, the inhibition at 0.01 µM in assay [2] (setting [4]) is > 80%.

Turning to `CNC(=O)N1CCc2c(c(N3CCCc4cc(-c5cnn(CC(=O)NCCCCC(=O)N[C@H](C(=O)N6C[C@H](O)C[C@H]6C(=O)NCc6ccc(-c7scnc7C)cc6)C(C)(C)C)c5)c(C(F)F)cc43)nn2C2CCOCC2)C1` [P-046, 3-(7-(Difluoromethyl)-6-(1-(2-((5-(((S)-1-((2S,4R)-4-hydroxy-2-((4-(4-methylthiazol-5-yl)benzyl)carbamoyl)pyrrolidin-1-yl)-3,3-dimethyl-1-oxobutan-2-yl)amino)-5-oxopentyl)amino)-2-oxoethyl)-1H-pyrazol-4-yl)-3,4-dihydroquinolin-1(2H)-yl)-N-methyl-1-(tetrahydro-2H-pyran-4-yl)-1,4,6,7-tetrahydro-5H-pyrazolo[4,3-c]pyridine-5-carboxamide], the IC50 in assay [1] (CellTiter-Glo (Table 2)) was found to be 9040 nM. Further, the inhibition at 0.01 µM in assay [2] (setting [4]) is < 20%.

In the case of `CNC(=O)N1CCc2c(c(N3CCCc4cc(-c5cnn(CC(=O)NCCOCCOCCOCC(=O)N[C@H](C(=O)N6C[C@H](O)C[C@H]6C(=O)NCc6ccc(-c7scnc7C)cc6)C(C)(C)C)c5)c(C(F)F)cc43)nn2C2CCOCC2)C1` [P-076, 3-(7-(Difluoromethyl)-6-(1-((S)-16-((2S,4R)-4-hydroxy-2-((4-(4-methylthiazol-5-yl)benzyl)carbamoyl)pyrrolidine-1-carbonyl)-17,17-dimethyl-2,14-dioxo-6,9,12-trioxa-3,15-diazaoctadecyl)-1H-pyrazol-4-yl)-3,4-dihydroquinolin-1(2H)-yl)-N-methyl-1-(tetrahydro-2H-pyran-4-yl)-1,4,6,7-tetrahydro-5H-pyrazolo[4,3-c]pyridine-5-carboxamide], the IC50 in assay [1] (CellTiter-Glo (Table 3)) was > 10000 nM. In addition, in assay [2] (setting [3]), the inhibition at 0.01 µM was < 20%.
